Data reported in publication PMC9970282 (Nature chemical biology, 2022).

Experiments:
Assay in all cases: Competitive kinase engagement in mouse spleen with probe 3 as occupancy probe
Assay type in all cases: in vivo, mice
CDK17 = CDK17 (Mus musculus, UniProt Q8K0D0); conditions: 50 mg/kg oral, probe 3 10 mg/kg s.c., 1 h, p < 0.05
CDK2 = CDK2 (Mus musculus, UniProt P97377); conditions: 50 mg/kg oral
CDK5 = CDK5 (Mus musculus, UniProt P49615); conditions: 50 mg/kg oral, probe 3 10 mg/kg s.c., 1 h, p < 0.05
Chain of CDK5 (P49615 whole entry): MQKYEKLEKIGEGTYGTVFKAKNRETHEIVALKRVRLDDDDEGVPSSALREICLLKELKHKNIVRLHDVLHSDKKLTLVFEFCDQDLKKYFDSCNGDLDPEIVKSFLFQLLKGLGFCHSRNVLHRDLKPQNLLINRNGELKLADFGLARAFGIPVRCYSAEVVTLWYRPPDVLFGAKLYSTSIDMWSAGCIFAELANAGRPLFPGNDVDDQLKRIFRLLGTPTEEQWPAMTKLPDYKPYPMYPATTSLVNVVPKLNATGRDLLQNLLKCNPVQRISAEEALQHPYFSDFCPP

Chain of CDK17 (Q8K0D0 whole entry): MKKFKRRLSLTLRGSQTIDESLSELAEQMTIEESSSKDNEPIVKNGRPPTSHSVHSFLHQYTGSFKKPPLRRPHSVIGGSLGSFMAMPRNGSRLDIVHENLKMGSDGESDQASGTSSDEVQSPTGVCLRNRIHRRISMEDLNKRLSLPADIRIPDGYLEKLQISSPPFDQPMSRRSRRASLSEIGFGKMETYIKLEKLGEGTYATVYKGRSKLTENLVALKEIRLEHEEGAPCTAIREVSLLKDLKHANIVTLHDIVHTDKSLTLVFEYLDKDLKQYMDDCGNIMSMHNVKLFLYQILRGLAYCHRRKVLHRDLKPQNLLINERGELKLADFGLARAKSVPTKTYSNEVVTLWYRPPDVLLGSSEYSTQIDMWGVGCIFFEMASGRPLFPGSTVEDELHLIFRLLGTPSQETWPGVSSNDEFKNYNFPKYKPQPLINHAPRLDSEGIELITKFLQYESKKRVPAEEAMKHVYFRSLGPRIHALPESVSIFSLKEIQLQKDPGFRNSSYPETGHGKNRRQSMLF

log2 FC of enrichment by probe 3, PF-06873600 vs. vehicle (CDK17): < –2 | estimated occupancy of CDK2 in spleen tissue (CDK2; mice, based on competition with probe 3): > 80% | log2 FC of enrichment by probe 3, PF-06873600 vs. vehicle (CDK2; mouse spleen, probe 3 10 mg/kg s.c., 1 h, p < 0.05): < –2 | log2 FC of enrichment by probe 3, PF-06873600 vs. vehicle (CDK5): ~ –1
Compound: C[C@@]1(O)CCC[C@H]1n1c(=O)c(C(F)F)cc2cnc(NC3CCN(S(C)(=O)=O)CC3)nc21 [PF-06873600]
